What was measured:
Assay in all cases: cells
[1] = test system: KE-37; type: functional, cell-based; conditions: Homo sapiens;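 further: growth inhibition of KE-37 cells, read out with a cell viability assay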
Description: SANGER: Inhibition of human KE-37 cell growth in a cell viability assay.

[2] = test system: KOSC-2; type: functional, cell-based, Homo sapiens; conditions: Homo sapiens, KOSC-2;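 further: growth inhibition of KOSC-2 cells, read out by a cell viability assay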
Description: SANGER: Inhibition of human KOSC-2 cell growth in a cell viability assay.

[3] = test system: HCC38; type: functional, cell-based, Homo sapiens; conditions: Homo sapiens, HCC38;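 further: cell viability assay on the human HCC38 cell line, with IC50 marking the concentration that inhibits cell growth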
Description: SANGER: Inhibition of human HCC38 cell growth in a cell viability assay.

[4] = test system: OCUB-M; type: functional, cell-based, Homo sapiens; conditions: Homo sapiens, OCUB-M;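 further: growth inhibition of the cancer cell line, read out through a cell viability assay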
Description: SANGER: Inhibition of human OCUB-M cell growth in a cell viability assay.

[5] = test system: CWR22R; type: functional, cell-based, Homo sapiens; conditions: Homo sapiens, 22Rv1;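 further: growth inhibition of 22Rv1 cells, read out with a cell viability assay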
Description: SANGER: Inhibition of human 22RV1 cell growth in a cell viability assay.

[6] = test system: NCI-H292; type: functional, cell-based, Homo sapiens; conditions: Homo sapiens, NCI-H292;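 further: growth inhibition of NCI-H292 cells, read out with a cell viability assay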
Description: SANGER: Inhibition of human NCI-H292 cell growth in a cell viability assay.

[7] = test system: TCC-SUP; type: functional, cell-based, Homo sapiens; conditions: Homo sapiens, TCC-SUP;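 further: growth inhibition of TCC-SUP cells, read out with a cell viability assay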
Description: SANGER: Inhibition of human TCCSUP cell growth in a cell viability assay.

[8] = test system: RXF 393; type: functional, cell-based; conditions: Homo sapiens;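 further: growth inhibition of human RXF 393 cells, read out with a cell viability assay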
[9] = test system: HuP-T3; type: functional, cell-based, Homo sapiens; conditions: Homo sapiens, HuP-T3;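 further: HuP-T3 cell growth inhibition, read out with a cell viability assay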
Description: SANGER: Inhibition of human HuP-T3 cell growth in a cell viability assay.

[10] = test system: KP-N-YS; type: functional, cell-based; conditions: Homo sapiens;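 further: cell viability assay measuring inhibition of cell line growth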
Description: SANGER: Inhibition of human KP-N-YS cell growth in a cell viability assay.

[11] = test system: OS-RC-2; type: functional, cell-based, Homo sapiens; conditions: Homo sapiens, OS-RC-2;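 further: growth inhibition of human OS-RC-2 cells, measured by a cell viability assay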
Description: SANGER: Inhibition of human OS-RC-2 cell growth in a cell viability assay.

[12] = test system: MFE-280; type: functional, cell-based, Homo sapiens; conditions: Homo sapiens, MFE-280;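 further: growth inhibition of MFE-280 cells, determined with a cell viability readout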
Description: SANGER: Inhibition of human MFE-280 cell growth in a cell viability assay.

[13] = test system: HO-1-N-1; type: functional, cell-based, Homo sapiens; conditions: Homo sapiens, HO-1-N-1;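 further: growth inhibition of human HO-1-N-1 cells, read out with a cell viability assay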
Description: SANGER: Inhibition of human HO-1-N-1 cell growth in a cell viability assay.

[14] = test system: CHP-212; type: functional, cell-based, Homo sapiens; conditions: Homo sapiens, CHP-212
Description: SANGER: Inhibition of human CHP-212 cell growth in a cell viability assay.

[15] = test system: LB2518-MEL; type: functional, cell-based, Homo sapiens; conditions: Homo sapiens, LB2518-MEL;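 further: growth inhibition of human LB2518-MEL cells, measured with a cell viability assay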
Description: SANGER: Inhibition of human LB2518-MEL cell growth in a cell viability assay.

[16] = test system: HH; type: functional, cell-based; conditions: Homo sapiens
Description: SANGER: Inhibition of human HH cell growth in a cell viability assay.

[17] = test system: HCC70; type: functional, cell-based, Homo sapiens; conditions: Homo sapiens, HCC70;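 further: cell viability assay measuring how strongly the compound suppresses proliferation of HCC70 cells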
Description: SANGER: Inhibition of human HCC70 cell growth in a cell viability assay.

[18] = test system: 8-MG-BA; type: functional, cell-based, Homo sapiens; conditions: Homo sapiens, 8-MG-BA;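 further: growth inhibition of 8-MG-BA cells, read out with a cell viability assay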
Description: SANGER: Inhibition of human 8-MG-BA cell growth in a cell viability assay.

[19] = test system: EW-13; type: functional, cell-based; conditions: Homo sapiens;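 further: growth inhibition of EW-13 cells, read out with a cell viability assay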
Description: SANGER: Inhibition of human EW-13 cell growth in a cell viability assay.

[20] = test system: COR-L105; type: functional, cell-based, Homo sapiens; conditions: Homo sapiens, COR-L105;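 further: cell growth inhibition determined with a viability assay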
Description: SANGER: Inhibition of human COR-L105 cell growth in a cell viability assay.

[21] = test system: SKG-IIIa; type: functional, cell-based, Homo sapiens; conditions: Homo sapiens, SKG-IIIa;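 further: cell growth inhibition, read out with a cell viability assay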
Description: SANGER: Inhibition of human SKG-IIIa cell growth in a cell viability assay.

[22] = test system: KS-1; type: functional, cell-based, Homo sapiens; conditions: Homo sapiens, KS-1;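 further: growth inhibition of KS-1 cells, read out with a cell viability assay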
Description: SANGER: Inhibition of human KS-1 cell growth in a cell viability assay.

[23] = test system: IST-SL1; type: functional, cell-based, Homo sapiens; conditions: Homo sapiens, IST-SL1;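 further: growth inhibition of human IST-SL1 cells, read out with a cell viability assay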
Description: SANGER: Inhibition of human IST-SL1 cell growth in a cell viability assay.

[24] = test system: NCI-H226; type: functional, cell-based, Homo sapiens; conditions: Homo sapiens, NCI-H226;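 further: cell viability read-out used to gauge growth inhibition of the cells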
Description: SANGER: Inhibition of human NCI-H226 cell growth in a cell viability assay.

[25] = test system: DMS-273; type: functional, cell-based, Homo sapiens; conditions: Homo sapiens, DMS-273
Description: SANGER: Inhibition of human DMS-273 cell growth in a cell viability assay.

[26] = test system: U-118-MG; type: functional, cell-based, Homo sapiens; conditions: Homo sapiens, U-118-MG
Description: SANGER: Inhibition of human U-118-MG cell growth in a cell viability assay.

[27] = test system: HC-1; type: functional, cell-based; conditions: Homo sapiens;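 further: growth inhibition of HC-1 cells measured by a cell viability assay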
Description: SANGER: Inhibition of human HC-1 cell growth in a cell viability assay.

[28] = test system: VA-ES-BJ; type: functional, cell-based, Homo sapiens; conditions: Homo sapiens, VA-ES-BJ;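 further: growth inhibition of the VA-ES-BJ cell line, read out by a cell viability assay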
Description: SANGER: Inhibition of human VA-ES-BJ cell growth in a cell viability assay.

[29] = test system: 5637; type: functional, cell-based, Homo sapiens; conditions: Homo sapiens
Description: SANGER: Inhibition of human 5637 cell growth in a cell viability assay.

[30] = test system: WM-115; type: functional, cell-based, Homo sapiens; conditions: Homo sapiens, WM-115
Description: SANGER: Inhibition of human WM-115 cell growth in a cell viability assay.

[31] = test system: MZ1-PC; type: functional, cell-based, Homo sapiens; conditions: Homo sapiens, MZ1-PC;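 further: cell viability assay measuring growth inhibition of human MZ1-PC cells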
Description: SANGER: Inhibition of human MZ1-PC cell growth in a cell viability assay.

[32] = test system: MLMA; type: functional, cell-based, Homo sapiens; conditions: Homo sapiens, MLMA;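 further: growth inhibition of MLMA cells (human), determined through a cell viability readout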
Description: SANGER: Inhibition of human MLMA cell growth in a cell viability assay.

[33] = test system: SF-295; type: functional, cell-based, Homo sapiens; conditions: Homo sapiens, SF-295; read-out: IC50;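 further: growth inhibition of SF-295 cells, read out with a cell viability assay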
Description: SANGER: Inhibition of human SF295 cell growth in a cell viability assay.

[34] = test system: NCI-H510A; type: functional, cell-based; conditions: Homo sapiens;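 further: growth inhibition of NCI-H510A cells, read out with a cell viability assay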
Description: SANGER: Inhibition of human NCI-H510A cell growth in a cell viability assay.

[35] = test system: MPP-89; type: functional, cell-based, Homo sapiens; conditions: Homo sapiens, MPP-89;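 further: growth inhibition of human MPP-89 cells, read out with a cell viability assay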
Description: SANGER: Inhibition of human MPP-89 cell growth in a cell viability assay.

[36] = test system: MC116; type: functional, cell-based; conditions: Homo sapiens;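 further: growth inhibition of MC116 cells, read out with a cell viability assay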
Description: SANGER: Inhibition of human MC116 cell growth in a cell viability assay.

[37] = test system: KARPAS-45; type: functional, cell-based; conditions: Homo sapiens;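 further: inhibition of cell line growth, read out through a viability assay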
Description: SANGER: Inhibition of human KARPAS-45 cell growth in a cell viability assay.

[38] = test system: SiHa; type: functional, cell-based, Homo sapiens; conditions: Homo sapiens, SiHa;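 further: Viability-based readout of growth inhibition in SiHa cells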
Description: SANGER: Inhibition of human SiHa cell growth in a cell viability assay.

[39] = test system: OVCAR-4; type: functional, cell-based, Homo sapiens; conditions: Homo sapiens, OVCAR-4;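 further: growth inhibition of human OVCAR-4 cells, measured with a cell viability assay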
Description: SANGER: Inhibition of human OVCAR-4 cell growth in a cell viability assay.

[40] = test system: NOMO-1; type: functional, cell-based; conditions: Homo sapiens;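 further: growth inhibition of human NOMO-1 cells measured by a cell viability assay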
[41] = test system: KGN; type: functional, cell-based, Homo sapiens; conditions: Homo sapiens, KGN;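 further: growth inhibition of KGN cells, read out with a cell viability assay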
Description: SANGER: Inhibition of human KGN cell growth in a cell viability assay.

[42] = test system: KU812 cell line; type: functional, cell-based; conditions: Homo sapiens;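 further: growth inhibition of KU812 cells, read out with a cell viability assay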
Description: SANGER: Inhibition of human KU812 cell growth in a cell viability assay.

[43] = test system: NOS-1; type: functional, cell-based, Homo sapiens; conditions: Homo sapiens, NOS-1;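 further: growth inhibition of the human NOS-1 cell line, read out with a cell viability assay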
Description: SANGER: Inhibition of human NOS-1 cell growth in a cell viability assay.

[44] = test system: ES8; type: functional, cell-based, Homo sapiens; conditions: Homo sapiens, ES8;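 further: growth inhibition of human ES8 cells, read out with a cell viability assay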
Description: SANGER: Inhibition of human ES8 cell growth in a cell viability assay.

[45] = test system: LB1047-RCC; type: functional, cell-based, Homo sapiens; conditions: Homo sapiens, LB1047-RCC;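 further: inhibition of cell growth, determined with a cell viability assay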
Description: SANGER: Inhibition of human LB1047-RCC cell growth in a cell viability assay.

[46] = test system: SH-4; type: functional, cell-based, Homo sapiens; conditions: Homo sapiens, SH-4;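 further: growth inhibition of SH-4 cells, read out with a cell viability assay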
Description: SANGER: Inhibition of human SH-4 cell growth in a cell viability assay.

[47] = test system: ML-2; type: functional, cell-based; conditions: Homo sapiens;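 further: growth inhibition of ML-2 cells, measured with a cell viability readout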
Description: SANGER: Inhibition of human ML-2 cell growth in a cell viability assay.

[48] = test system: CTV-1; type: functional, cell-based; conditions: Homo sapiens;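 further: growth inhibition of the cell line, read out with a cell viability assay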
Description: SANGER: Inhibition of human CTV-1 cell growth in a cell viability assay.

[49] = test system: MOLT-16; type: functional, cell-based; conditions: Homo sapiens;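 further: growth inhibition of human MOLT-16 cells, read out with a cell viability assay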
Description: SANGER: Inhibition of human MOLT-16 cell growth in a cell viability assay.

[50] = test system: SNU-449; type: functional, cell-based, Homo sapiens; conditions: Homo sapiens, SNU-449
Description: SANGER: Inhibition of human SNU-449 cell growth in a cell viability assay.

[51] = test system: MeWo; type: functional, cell-based, Homo sapiens; conditions: Homo sapiens, MeWo;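 further: growth inhibition of MeWo cells, determined by a cell viability readout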
Description: SANGER: Inhibition of human Mewo cell growth in a cell viability assay.

[52] = test system: UO-31; type: functional, cell-based; conditions: Homo sapiens;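 further: cell viability assay measuring inhibition of cell growth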
Description: SANGER: Inhibition of human U031 cell growth in a cell viability assay.

With `O=C(c1cc(Cc2n[nH]c(=O)c3ccccc23)ccc1F)N1CCN(C(=O)C2CC2)CC1` [OLAPARIB] the IC50 [1] was over 5000 nM, the IC50 [2] was over 5000 nM and the IC50 [3] was over 5000 nM. It also gave an IC50 [4] of over 5000 nM, an IC50 [5] of over 5000 nM and an IC50 [6] of over 5000 nM. It also gave an IC50 [7] of over 5000 nM, an IC50 [8] of over 5000 nM and an IC50 [9] of over 5000 nM. It also gave an IC50 [10] of over 5000 nM, an IC50 [11] of over 5000 nM and an IC50 [12] of over 5000 nM. For the same compound, the IC50 [13] was over 5000 nM, the IC50 [14] was over 5000 nM and the IC50 [15] was over 5000 nM. It also gave an IC50 [16] of over 5000 nM, an IC50 [17] of over 5000 nM and an IC50 [18] of over 5000 nM. It also gave an IC50 [19] of over 5000 nM, an IC50 [20] of over 5000 nM and an IC50 [21] of over 5000 nM. It also gave an IC50 [22] of over 5000 nM, an IC50 [23] of over 5000 nM and an IC50 [24] of over 5000 nM. The IC50 [25] was over 5000 nM, the IC50 [26] was over 5000 nM and the IC50 [27] was over 5000 nM. It also gave an IC50 [28] of over 5000 nM, an IC50 [29] of over 5000 nM and an IC50 [30] of over 5000 nM. For the same compound, the IC50 [31] was over 5000 nM, the IC50 [32] was over 5000 nM and the IC50 [33] was over 5000 nM. For the same compound, the IC50 [34] was 3830 nM, the IC50 [35] was over 5000 nM and the IC50 [36] was over 5000 nM. The IC50 [37] was over 5000 nM, the IC50 [38] was over 5000 nM and the IC50 [39] was over 5000 nM. For the same compound, the IC50 [40] was over 5000 nM, the IC50 [41] was over 5000 nM and the IC50 [42] was over 5000 nM. For the same compound, the IC50 [43] was over 5000 nM, the IC50 [44] was 1720 nM and the IC50 [45] was over 5000 nM. The IC50 [46] was over 5000 nM, the IC50 [47] was 3600 nM and the IC50 [48] was over 5000 nM. For the same compound, the IC50 [49] was over 5000 nM, the IC50 [50] was over 5000 nM and the IC50 [51] was over 5000 nM. It also gave an IC50 [52] of over 5000 nM.
In the case of `CCC(=O)N1CCN(c2ccc(-n3c(=O)ccc4cnc5ccc(-c6cnc7ccccc7c6)cc5c43)cc2C(F)(F)F)CC1` [TORIN1], the IC50 [1] is reported as 15.7 nM, the IC50 [4] is reported as 1.94 nM and the IC50 [8] is reported as 94.6 nM. For the same compound, the IC50 [10] was over 1200 nM, the IC50 [11] was 23.2 nM and the IC50 [15] was 87 nM. The IC50 [16] was 135 nM, the IC50 [18] was 46.3 nM and the IC50 [19] was over 1200 nM. For the same compound, the IC50 [22] was 13.9 nM, the IC50 [23] was 858 nM and the IC50 [24] was over 1200 nM. It also gave an IC50 [27] of 58.3 nM, an IC50 [28] of 9.84 nM and an IC50 [31] of 66 nM. The IC50 [32] was 67.8 nM, the IC50 [34] was 772 nM and the IC50 [35] was 181 nM. For the same compound, the IC50 [36] was 26.8 nM, the IC50 [37] was 782 nM and the IC50 [39] was 30.9 nM. It also gave an IC50 [40] of 400 nM, an IC50 [41] of 13.6 nM and an IC50 [42] of 13 nM. It also gave an IC50 [43] of 2.42 nM, an IC50 [44] of 18.4 nM and an IC50 [45] of 24.9 nM. The IC50 [46] was 35.8 nM, the IC50 [47] was 140 nM and the IC50 [48] was 65.5 nM. It also gave an IC50 [49] of 16.2 nM.
In the case of `Cc1cc(Nc2cc(N3CCN(C)CC3)nc(Sc3ccc(NC(=O)C4CC4)cc3)n2)n[nH]1` [TOZASERTIB], the IC50 [1] is reported as 521 nM, the IC50 [4] is reported as 170 nM and the IC50 [8] is reported as over 2000 nM. For the same compound, the IC50 [10] was 544 nM, the IC50 [11] was over 2000 nM and the IC50 [15] was over 2000 nM. It also gave an IC50 [16] of over 2000 nM, an IC50 [18] of over 2000 nM and an IC50 [19] of over 2000 nM. For the same compound, the IC50 [22] was 238 nM, the IC50 [23] was over 2000 nM and the IC50 [24] was over 2000 nM. The IC50 [27] was over 2000 nM, the IC50 [28] was 201 nM and the IC50 [31] was over 2000 nM. It also gave an IC50 [32] of over 2000 nM, an IC50 [34] of 438 nM and an IC50 [35] of over 2000 nM. The IC50 [36] was 850 nM, the IC50 [37] was over 2000 nM and the IC50 [39] was over 2000 nM. It also gave an IC50 [40] of over 2000 nM, an IC50 [41] of 900 nM and an IC50 [42] of over 2000 nM. For the same compound, the IC50 [43] was over 2000 nM, the IC50 [44] was 46.1 nM and the IC50 [45] was over 2000 nM. For the same compound, the IC50 [46] was over 2000 nM, the IC50 [47] was 903 nM and the IC50 [48] was 588 nM. For the same compound, the IC50 [49] was 1350 nM.

Source: ChEMBL document CHEMBL1201861, “Genomics of Drug Sensitity in Cancer screening data, Wellcome Trust Sanger Institute”
